Data: patent US5459126A, “Method for decreasing calcium uptake by cells using selected polycations” (California Institute of Technology, priority 1993, dated 1995)
“Also recorded” adds a separate entry of the source.

Experiments:
Assay type in all cases: cell-based
[1] = tested on: neonatal rat cardiomyocytes; experiment: 45Ca uptake by cultured cardiomyocytes exposed to hydrogen peroxide (free radical attack), on-line isotopic technique
Experimental: Protamine is a strong polycationic polypeptide used extensively for heparin reversal after cardiopulmonary bypass. The drug is known to be negatively inotropic. The neonatal rat cardiomyocytes were cultured according to the procedure described by Frank et al.(13).
Ca fluxes were measured by an on-line isotopic technique (13). The myocytes were cultured onto scintillant-containing discs which were mounted in a flow cell so that the cells were in direct contact with perfusate. The flow cell was placed between two opposing […] tubes. Cell-associated Ca was then recorded in counts per minute. ^45 Ca^2+ is a low energy beta-emitter. The radioactivity contained within the perfusate is counted with very low efficiency (<5%) whereas that within the cells is counted with an efficiency of 39%. In all of the examples the cells were initially perfused with non isotopic solution to remove any debris. Perfusion with ^45 Ca^2+ containing solution was then commenced at 10 ml/minute and continued until the cells were labelled to asymptote. […] The flow cell was then drained and refilled with a solution containing hydrogen peroxide. The cells were then incubated for 60 minutes with continuous recording of ^45 Ca labeling (no flow) prior to washout with non-isotopic perfusate.
After asymptotic labeling with ^45 Ca, the cells were perfused with a solution containing protamine sulfate at varying concentrations. […] The flow cell was then drained and refilled with a solution containing 50 μM H2 O2 and protamine. The procedure was repeated with protamine in varying concentrations: 1 μM (n=4); 5 μM (n=6) and 50 μM (n=6).
(§1) At the end of each experiment the discs were removed from the flow cell, allowed to dry and the cells were scraped onto a pre-weighed piece of filter paper. This was placed in an oven (>100° C.) overnight and then weighed, permitting determination of the cellular dry weight. The specific activity of each isotopic solution was measured in a […] (Beckman Instruments) and cell-associated Ca was expressed in mmoles/kg dry cellular weight. The cell cultures were maintained at 37° C.

[2] = tested on: neonatal rat cardiomyocytes; experiment: 45Ca uptake by metabolically inhibited cardiomyocytes (iodoacetic acid + 2-deoxyglucose); details: for inhibition of calcium uptake: iodoacetic acid and 2-deoxyglucose
Experimental: Ca fluxes were measured by an on-line isotopic technique (13). The myocytes were cultured onto scintillant-containing discs which were mounted in a flow cell so that the cells were in direct contact with perfusate. The flow cell was placed between two opposing […] tubes. Cell-associated Ca was then recorded in counts per minute. ^45 Ca^2+ is a low energy beta-emitter. The radioactivity contained within the perfusate is counted with very low efficiency (<5%) whereas that within the cells is counted with an efficiency of 39%. In all of the examples the cells were initially perfused with non isotopic solution to remove any debris. Perfusion with ^45 Ca^2+ containing solution was then commenced at 10 ml/minute and continued until the cells were labelled to asymptote. This normally took 25-30 minutes. The flow cell was then drained and refilled with a solution containing hydrogen peroxide. The cells were then incubated for 60 minutes with continuous recording of ^45 Ca labeling (no flow) prior to washout with non-isotopic perfusate.
as §1
Exposure of neonatal rat cardiomycytes to 0.05 mM iodoacetic acid (IAA), as a glycolytic inhibitor, and 0.5 mM 2-deoxyglucose (2-DOG), as a non-metabolizable substrate, produces a graded depletion in intracellular ATP and induces a significant Ca leak. In the following example involving metabolic inhibition, these two compounds were included in the incubation medium. 2-DOG was added directly and IAA was added from a 1 M stock solution, dissolved in water. The concentration in the culture media was 0.5 mM for 2-DOG and 0.05 mM for IAA.

mammalian cells = experiment: calcium uptake inhibition in cell culture, noxious stimulus not specified
[3] = calcium leak caused by hydrogen peroxide
[4] = calcium leak caused by metabolic inhibition

hexamedronium bromide [Polybrene] was tested, and the “inhibition of calcium leak” value [1, 3] was “inhibited the calcium leak”, the “threshold concentration above which inhibition was significant” value [1, 3] was 25 µM and the “effect on calcium uptake” value ([1]; polybrene 25 μM, free radical attack (FIG. 4)) was “prevention of calcium uptake”. The “inhibition of calcium leak” value [2, 4] was “inhibited the calcium leak”, the “threshold concentration above which inhibition was significant” value [2, 4] was 25 µM and the “effect on calcium uptake” value ([2]; polybrene 25 μM, metabolically inhibited cells (FIG. 5)) was “prevention of calcium uptake”.

`CCCCCCCCCCCC[N+](C)(C)C.[Br-]` [DDTMA, dodecyltrimethylammonium bromide] was tested, and the “inhibition of calcium uptake” value ([2]; 50 μM) was “significant inhibition of calcium uptake”.

For Gentamicin, the “amount required to obtain any significant level of calcium uptake inhibition” value (mammalian cells) was 1.5 mM.

With protamine the “effect on Ca overload” value ([1]; protamine 1 μM, 50 μM H2O2, 60 min incubation) was “no effect”, the “effect on Ca overload / calcium uptake” value ([1]; protamine 5 μM, 50 μM H2O2, 60 min incubation) was “prevention of calcium uptake; also recorded: completely prevented the Ca overload” and the “effect on Ca overload” value ([1]; protamine concentration above 5 μM (50 μM tested), 50 μM H2O2) was “no additional effect”. The “effect of protamine on Ca overload after neutralizing its positive charge with heparin” value ([1]; protamine plus heparin, H2O2) was “completely inhibited”, the “Ca uptake on perfusion with the agent alone” value ([1]; protamine sulfate at varying concentrations, after asymptotic 45Ca labeling, before H2O2) was “did not significantly alter Ca uptake” and the “effect on calcium overload” value (mammalian cells; cell culture concentrations of 5 μM and above) was “completely prevent calcium overload”. The “effect on calcium uptake” value ([2]; concentrations below 5 μM, 0.05 mM IAA + 0.5 mM 2-DOG) was “did not exert a significant effect” and the “effect on calcium uptake” value ([2]; concentrations of 5 μM and higher, 0.05 mM IAA + 0.5 mM 2-DOG) was “prevention of calcium uptake; also recorded: dramatic drop in calcium uptake”.

With polymyxin B sulfate [PXB] the “inhibition of calcium uptake” value ([2]; 100 μM) was “substantially inhibited”.
